The text below walks through data of patent US8614237B2, “Benzofuran-4,5-diones as selective peptide deformylase inhibitors” (Sloan-Kettering Institute for Cancer Research, priority 2009, dated 2013).

In series [1] the test system is EcPDF.
Experimental: Head of the field: EcPDF %I 100uM
(§4) Specificity profiling of the derivatives of benzofuran-4,5-diones.
Where the first naming reader finds the target: head: EcPDF %I 100uM
The test system of the next series is APN. Briefly: APN %I 100uM. As for the experimental part:
(§1) Table printed on a drawing sheet, Figure 5
Head of the field: APN %I 100uM
(§2) Footnotes: -26 124 % inhibition
(§3) The patent's description of the figure: FIG. 5.
Where the first naming reader finds the target: head: APN %I 100uM

For series [2], the target named is T1, HsPDF (Homo sapiens, UniProt Q9HBH1).
T1 construct: A 63 amino acid N-terminally truncated human peptide deformylase (HsPDF); 6His (C); made in house; host or cells: E. coli BL21 (DE3), co-transformed with the GroES/EL chaperone plasmid
T1 sequence (Q9HBH1 64-243 limits assumed): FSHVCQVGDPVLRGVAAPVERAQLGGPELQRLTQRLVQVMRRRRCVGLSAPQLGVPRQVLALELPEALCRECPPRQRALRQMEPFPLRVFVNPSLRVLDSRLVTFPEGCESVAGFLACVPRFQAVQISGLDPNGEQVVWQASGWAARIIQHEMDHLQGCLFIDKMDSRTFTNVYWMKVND
Briefly: FP binding assay (fluorescence polarization, probe SKI 267088), specificity profiling and dose response. The settings on record: for activity toward HsPDF, FP assay: specificity profiling / dose response. The procedure:
Specificity profiling was performed on the newly synthesized benzofuran-4,5-diones using the aforementioned FP profiling method (Antczak et al., J. Biomol. Screen 2008, 13, 285-294).
Compounds or high/low controls were added to the wells at a volume of 2 μL. […] High controls consisted of 1% DMSO (v/v). MBP-HsPDF or the metalloprotease to be tested was diluted in the assay buffer (25 mM Hepes, 50 mM NaCl, 0.005% Tween 20, pH 7.5), and 10 μL where added to the 384-well microplates (Low Volume Round Bottom NBS Treated, Corning) to achieve a final concentration of 1 μM. After addition of MBP-HsPDF to the tested compounds, the 384-well microplates were preincubated for one hour at room temperature. Then 8 μL of the probe SKI 267088 in solution in assay buffer was added to the wells at a final concentration of 5 nM. After one hour incubation at room temperature, the fluorescence polarization was read using the Amersham LEADseeker™ Multimodality Imaging System equipped with Cy3 excitation/emission filters and Cy3 FP epi-mirror. Quench tests were performed in duplicate by measuring the fluorescence polarization of wells containing the probe, pre- and post-addition of the compounds at 100 μM.
In each assay, the signal inhibition induced by the compounds was expressed as a percentage compared to high and low controls located on the same plate, as defined as % Inhibition=(high control average−read value)/(high control average−low control average)×100. The dose response was assessed in duplicate and using 12 point doubling dilutions with 100 μM compound concentration as the upper limit. The dose response curve for each set of data was fitted separately, and the two IC50 values obtained were averaged.
(In fluorescence polarisation assays a small probe gives low polarisation when free and higher when bound to something large.)

Series [3] can be described thus: In vivo toxicity of benzofuran-4,5-diones. The settings on record: i.p. twice a day for four days, 1 to 10 mg/kg, monitored 14 days. As for the experimental part:
Lead compound SKC-BF-13 and another newly synthesized derivative SKC-BF-02 were selected in order to assess the in vivo toxicity of benzofuran-4,5-diones. Three mice per group were treated with BF-13 at three doses (i.e., 1, 5 and 10 mg/kg) or with SKC-BF-02 at two doses (i.e., 1 and 10 mg/kg). A control group of two mice were treated with the vehicle (i.e., 20% DMSO v/v). Mice were treated twice a day for four days via intraperitoneal administration. Their weight was monitored along with any other signs of toxicity for fourteen days.
ICR/SCID male mice about three weeks old were used in this study. Three mice per group were treated with BF-13 at three doses (i.e., 1, 5 and 10 mg/kg) or with SKC-BF-02 at two doses (i.e., 1 and 10 mg/kg). A control group of two mice were treated with the vehicle (20% DMSO v/v). Mice were treated twice a day for four days via intraperitoneal administration. Their weight was monitored as well as any other sign of toxicity for 14 days.
SKI 396848 (SKC-BF-12) and SKI 396840 (SKC-BF-02) were synthesized during the first round of exploratory chemistry to assess the in vivo toxicity of benzofuran-4,5-diones (as shown in FIG. 8). Three ICR/SCID male mice per group were treated with SKI 396848 at three doses: 1, 5 and 10 mg/kg or with SKI 396840 at two doses: 1 and 10 mg/kg. A control group of two mice was treated with the vehicle (20% DMSO v/v). Mice were treated twice a day for four days i.p. Their weight was monitored as well as any other sign of toxicity for 14 days. One treated mouse per group was evaluated by a pathologist.

For series [4], the system named is panel of cancer cell lines. Briefly: Cytotoxicity assay (Alamar Blue), primary hits and first generation derivatives. The settings on record: first generation, panel of nine cancer cell lines. Type of series: cell-based, human. As for the experimental part:
Cytotoxicity assays were performed in order to profile the thirty-three newly synthesized benzofuran-4,5-dione derivatives on a panel of nine cancer cell lines. A heat map summarizes the calculated IC50s ([…]). Twelve out of thirteen derivatives potent toward HsPDF were also cytotoxic toward several cancer cell lines (FIG. 7).
The cell lines HL-60 (human acute promyelocytic leukemia), Jurkat (human acute T cell leukemia), Molt3 (acute lymphoblastic leukemia), CWR22 (prostate carcinoma), HEK293 (human embryonic kidney), K562 (human chronic myeloid leukemia lymphoblasts), Y79 (human retinoblastoma) were obtained from the ATCC, and cultured following ATCC recommendations. The cell line NCEB-1 (human non-hodgkin lymphoma) was obtained from Dr. O'Connor (Sloan-Kettering Institute). The cell line HL-60/RV+ (a P-glycoprotein-overexpressing multi-drug resistant HL-60 variant selected by continuous exposure to vincristine) was described elsewhere (Weisburg et al., J. Biol. Chem. 1999, 274, 10877-10888). The cell line ALL-3 (acute lymphoblastic leukemia isolated from a patient treated at MSKCC and characterized as Philadelphia chromosome positive) was obtained from Dr. Mark Frattini (MSKCC). The assay used for the cytotoxicity studies is based on the dye resazurin and commercially sold as Alamar Blue (O'Brien et al., Eur. J. Biochem. 2000, 267, 5421-5426). […]

The test system of series [5] is EcPDF. This is another data set of the same source.
Experimental: Head of the field: EcPDF %I 10uM
as §4
Where the first naming reader finds the target: head: EcPDF %I 10uM
For the next series, the system named is MMP-1. Briefly: MMP-1 %I 100uM. The procedure: as §1
Head of the field: MMP-1 %I 100uM
as §2, §3
Where the first naming reader finds the target: head: MMP-1 %I 100uM

The target of series [6] is T1, HsPDF. Briefly: FLUO functional assay (fluorescamine, substrate fMAHA). Type of series: biochemical. Conditions: 0.5 μM HsPDF, upper limit 10 μM compound. As for the experimental part: High controls consisted of 1% DMSO (v/v). […] The deformylation reaction mixture was incubated for one hour at room temperature. A separate set of plates containing 3 μL of fluorescamine at 1 mg/mL in 100% DMSO was prepared for the labeling step. Then, 17 μL of the reaction mixture from the original set of plates was transferred to the plates containing the fluorescamine solution for the labeling step. The readout was performed on a Perkin Elmer VICTOR^3 V™ Multi label counter, using an excitation wavelength of 355 nm, and an emission wavelength of 460 nm. […] Compounds inducing a variation of fluorescence greater than 20% were flagged as optically active compounds.
High controls consisted of 1% DMSO (v/v). […] The deformylation reaction mixture was incubated for one hour at room temperature. A separate set of plates containing 3 μL of fluorescamine at 1 mg/mL in 100% DMSO was prepared for the labeling step. Then, 17 μL of the reaction mixture from the original set of plates was transferred to the plates containing the fluorescamine solution for the labeling step. The readout was performed on a Perkin Elmer VICTOR3 V™ Multi label counter, using an excitation wavelength of 355 nm, and an emission wavelength of 460 nm.

For series [7], the system named is panel of eight cancer cell lines. The experiment in a line: Cytotoxicity profiling of 26 second generation derivatives (Alamar Blue viability assay, nuclei count). Format: cell-based, human. As for the experimental part: Cytotoxicity profiling for the 26 newly synthesized benzofuran-4,5-diones derivatives was performed on a panel of eight cancer cell lines.
The cell lines HL-60 (human acute promyelocytic leukemia), Jurkat (human acute T cell leukemia), Molt3 (acute lymphoblastic leukemia), CWR22 (prostate carcinoma), K562 (human chronic myeloid leukemia lymphoblasts), and Y79 (human retinoblastoma) were obtained from the ATCC, and cultured following ATCC recommendations. The cell line HL-60/RV+ (a P-glycoprotein-overexpressing multi-drug resistant HL-60 variant selected by continuous exposure to vincristine) was described elsewhere (Weisburg J H, Roepe P D, Dzekunov S, Scheinberg D A: Intracellular pH and multidrug resistance regulate complement-mediated cytotoxicity of nucleated human cells. J Biol Chem 1999; 274:10877-10888). The cell line ALL-3 (acute lymphoblastic leukemia isolated from a patient treated at MSKCC and characterized as Philadelphia chromosome positive) was obtained from Dr. Mark Frattini (MSKCC). The viability assay we used in this study is based on the dye resazurin and commercially sold as Alamar Blue (O'Brien J, Wilson I, Orton T, Pognan F: Investigation of the Alamar Blue (resazurin) fluorescent dye for the assessment of mammalian cell cytotoxicity. Eur J Biochem 2000; 267:5421-5426). Cells were added in 45 μL medium to the pre-plated compounds in 5 μL of 1% DMSO (v/v). After 72 h incubation was added 5 μL Alamar Blue. […] Plates were then fixed and nuclei were stained using Hoechst for the nuclear count proliferation assay. Imaging for Hoechst staining of nuclei count were acquired with an IN Cell Analyzer 2000 epifluorescence automated microscope ([…]) (GE Healthcare, Piscataway, N.J.) equipped with a 4× objective, using D360/40 excitation filter (360 nm excitation peak; +/−40 nm bandpass), HQ535/50 emission filter (535 nm emission peak; +/−50 nm bandpass) and Q505LP dichroic, and exposing fields for 200 milliseconds in the blue channel. Image analysis was conducted with the IN Cell Developer 1.7 software (GE Healthcare) using custom-developed analysis modules. The analysis module used for nuclei count performs object segmentation in the blue channel to automatically define and count the number of nuclei. Data is reported as the sum of imaged nuclei.
In addition of the Alamar Blue viability assay readout, for the adherent cell lines of this panel (CWR22 and Meso47) we performed a direct nuclei count to assess the effect of the novel derivatives on cell proliferation.

The IC50 is the midpoint of a concentration-inhibition curve. A higher IC50 goes with a need for much substance. On to `O=C1C=Cc2occ(C(=O)c3ccccc3)c2C1=O` [SKC-BF-01, 3-Benzoyl-benzofuran-4,5-dione], for which the “EcPDF %I 100uM” value with EcPDF [1] was determined as 32 %I. The “APN %I 100uM” value in the series on APN worked out at 5 %I. At HsPDF [2] (dose response, 12 point doubling dilutions, upper limit 100 μM), the IC50 is 59000 nM. The “selectivity for HsPDF in a panel of metalloproteases” value at HsPDF [2] (panel HsPDF, EcPDF, APN and MMP-1) is on record as “most selective HsPDF inhibitors”.

On to `COc1ccc(C(=O)c2coc3c2C(=O)C(=O)C=C3)cc1` [SKC-BF-02, 3-(4-Methoxy-benzoyl)-benzofuran-4,5-dione], for which the “signs of toxicity in vivo (weight and other signs)” value in series [3] is listed as “none of the treatments induced any sign of toxicity”; in series [3] (listed as SKI 396840), “None of the treatments were found to induce any signs of toxicity”.

As to `COc1ccc(C(=O)c2coc3c2C(=O)C(=O)C(Cl)=C3Cl)cc1OC` [SKC-BF-10, 6,7-Dichloro-3-(3,4-dimethoxy-benzoyl)-benzofuran-4,5-dione], the “cytotoxicity toward cancer cell lines” value in series [4] was “not very active toward any cancer cell line tested”. Moreover, the “activity toward HsPDF, FP assay” value at HsPDF [2] is listed as “potent HsPDF inhibitor”. Moreover, in the series on EcPDF [5], the “EcPDF %I 10uM” value came to 24 %I. Besides, the “MMP-1 %I 100uM” value in the series on MMP-1 was 46 %I.

Turning to `COc1ccc(C(=O)c2coc3c2C(=O)C(=O)c2ccccc2-3)cc1` [SKC-NF-01, 3-(4-Methoxy-benzoyl)-naphtho[1,2-b]furan-4,5-dione], the “EcPDF %I 100uM” value in the series with EcPDF [1] was 23 %I. In addition, in the series on APN, the “APN %I 100uM” value came to 22 %I. The “activity toward HsPDF, FP assay” value at HsPDF [2] is “inactive”. Moreover, the “EcPDF %I 10uM” value in the series on EcPDF [5] is 30 %I. The “MMP-1 %I 100uM” value in the series with MMP-1 is reported as 27 %I.

On HsPDF [6], `O=C1C(=O)c2c(C(=O)c3ccccc3)coc2C(Br)=C1Br` [SKI 417508, 3-benzoyl-6,7-dibromobenzofuran-4,5-dione] showed an IC50 of 3400 nM.

With `O=C1C(=O)c2c(C(=O)c3ccsc3)coc2C(Cl)=C1Cl` [SKI 417512, 6,7-dichloro-3-(thiophene-3-carbonyl)benzofuran-4,5-dione], the IC50 against HsPDF [6] is 1800 nM.

Consider `O=C1C(=O)c2c(C(=O)c3ccc(C(=O)O)cc3)coc2C(Br)=C1Br` [SKI 417518, 4-(6,7-dibromo-4,5-dioxo-4,5-dihydrobenzofuran-3-carbonyl)benzoic acid], for which, on HsPDF [6], the IC50 stood at 2300 nM.

For `O=C1C(=O)c2c(C(=O)c3ccc(C(=O)O)cc3)coc2C(Cl)=C1Cl` [SKI 417519, 4-(6,7-dichloro-4,5-dioxo-4,5-dihydrobenzofuran-3-carbonyl)benzoic acid], the IC50 against HsPDF [6] was 690 nM. Further, the “activity against the cell lines of the panel, second generation” value (“activity against the cell lines” below) in [7] is listed as “not active toward most of the cell lines tested”.

With `O=C(O)COc1ccc(C(=O)c2coc3c2C(=O)C(=O)C(Br)=C3Br)cc1` [SKI 417520, 2-(4-(6,7-dibromo-4,5-dioxo-4,5-dihydrobenzofuran-3-carbonyl)phenoxy)acetic acid], the IC50 on HsPDF [6] is 680 nM. Also, the “activity against the cell lines” value in series [7] was “not active toward most of the cell lines tested”.

Take `O=C(O)COc1ccc(C(=O)c2coc3c2C(=O)C(=O)C(Cl)=C3Cl)cc1` [SKI 417521, 2-(4-(6,7-dichloro-4,5-dioxo-4,5-dihydrobenzofuran-3-carbonyl)phenoxy)acetic acid]: the IC50 on HsPDF [6] stood at 620 nM. The “activity against the cell lines” value in series [7] is listed as “not active toward most of the cell lines tested”.
